{
  "source": "patent US4775681A",
  "about": "“Method of treating fungal infections with trans-6-[2-substitutedpyrrol-1-yl)alkyl]-4-hydroxypyran-2-ones” (Warner-Lambert Company, priority 1987, dated 1988)",
  "experiment_in_all_cases": "Antifungal susceptibility, microbroth dilution MIC",
  "format_in_all_cases": "cell-based",
  "key": {"[1]": {"tested_on": "Candida albicans", "procedure": "(§1) The antimicrobial susceptibilities of eleven strains of Candida albicans, two strains of Candida tropicans, and one strain each of Torulopsis glabrata and Cryptococcus neoformans to several representative compounds of the present invention were tested. For comparison, the known antifungal agents amphotericin-B and ketoconazole were also tested. Minimal inhibitory concentrations (MIC's) for each compound were determined using the microbroth dilution technique described by S. Shadomy, et al, \"Laboratory Studies with Antifungal Agents: Susceptibility Tests and Bioassays,\" pp. 991-999 in Manual Clin. Microbiol., 4th Ed., Amer. Soc. For Microbiol., Washington, D.C., 1985. The compounds tested are as follows and the results of the testing appear in the following Table."}, "[2]": {"tested_on": "Candida tropicans", "procedure": "as §1"}, "[3]": {"tested_on": "Cryptococcus neoformans", "conditions": "strain 1678, 24 hours", "procedure": "as §1"}, "[4]": {"tested_on": "Torulopsis glabrata", "conditions": "Nakaseomyces glabratus; strain 1581; 24 hours", "procedure": "as §1"}, "[5]": {"conditions": "ATCC10231, 24 h, strain ATCC 10231"}, "[6]": {"conditions": "ATCC13803, strain ATCC 13803, 24 hours"}},
  "note": "Where a name gives a salt, the structure may show the parent alone.",
  "data": [
    {"smiles": "CC(C)c1c(Br)c(Br)c(-c2ccc(F)cc2)n1CC[C@@H](O)C[C@@H](O)CC(=O)O", "note": "(relative stereo) [Compound 1, 3,4-Dibromo-2-(4-fluorophenyl)-β,δ-dihydroxy-5-(1-methylethyl)-1H-pyrrole-1-heptanoic acid, monosodium salt]", "values": [
      {"measurement": "MIC", "setting": "[1]; 24 h, strain 1570", "value": 16, "unit": "µg/mL"},
      {"measurement": "MIC", "setting": "[1]; 24 h, strain 1571", "value": 32, "unit": "µg/mL"},
      {"measurement": "MIC", "setting": "[1]; 24 h, strain 1574", "value": 16, "unit": "µg/mL"},
      {"measurement": "MIC", "setting": "[1]; 24 h, strain 1575", "value": 32, "unit": "µg/mL"},
      {"measurement": "MIC", "setting": "[1]; 24 h, strain 1576", "value": 15, "unit": "µg/mL"},
      {"measurement": "MIC", "setting": "[1]; 24 h, strain 1577", "value": 16, "unit": "µg/mL"},
      {"measurement": "MIC", "setting": "[1]; 24 h, strain 1578", "value": 16, "unit": "µg/mL"},
      {"measurement": "MIC", "setting": "[1]; 24 h, strain 1579", "value": 16, "unit": "µg/mL"},
      {"measurement": "MIC", "setting": "[1]; 24 h, strain B4b", "value": 16, "unit": "µg/mL"},
      {"measurement": "MIC", "setting": "[1]; 24 h, strain M752", "value": 32, "unit": "µg/mL"},
      {"measurement": "MIC", "setting": "[1]; [5]", "value": 16, "unit": "µg/mL"},
      {"measurement": "MIC", "setting": "[2]; [6]", "value": 64, "unit": "µg/mL"},
      {"measurement": "MIC", "setting": "[2]; strain 1573, 24 hours", "value": 16, "unit": "µg/mL"},
      {"measurement": "MIC", "setting": "[3]", "value": 128, "unit": "µg/mL"},
      {"measurement": "MIC", "setting": "[4]", "value": 128, "unit": "µg/mL"}
    ]},
    {"smiles": "CCOC(=O)c1c(Br)c(-c2ccc(F)cc2)n(CC[C@H]2C[C@H](O)CC(=O)O2)c1C(F)(F)F", "note": "(relative stereo) [Compound 2, trans-4-Bromo-5-(4-fluorophenyl)-1[2-(tetrahydro-4-hydroxy-6-oxo-2H-pyran-2-yl)-ethyl]-2-(trifluoromethyl)-1H-pyrrole-3-carboxylic acid, ethyl ester]", "values": [
      {"measurement": "MIC", "setting": "[1]; 24 h, strain 1570", "value": 32, "unit": "µg/mL"},
      {"measurement": "MIC", "setting": "[1]; 24 h, strain 1571", "value": 64, "unit": "µg/mL"},
      {"measurement": "MIC", "setting": "[1]; 24 h, strain 1574", "value": 32, "unit": "µg/mL"},
      {"measurement": "MIC", "setting": "[1]; 24 h, strain 1575", "value": 32, "unit": "µg/mL"},
      {"measurement": "MIC", "setting": "[1]; 24 h, strain 1576", "value": 32, "unit": "µg/mL"},
      {"measurement": "MIC", "setting": "[1]; 24 h, strain 1577", "value": 32, "unit": "µg/mL"},
      {"measurement": "MIC", "setting": "[1]; 24 h, strain 1578", "value": 32, "unit": "µg/mL"},
      {"measurement": "MIC", "setting": "[1]; 24 h, strain 1579", "value": 32, "unit": "µg/mL"},
      {"measurement": "MIC", "setting": "[1]; 24 h, strain B4b", "value": 16, "unit": "µg/mL"},
      {"measurement": "MIC", "setting": "[1]; 24 h, strain M752", "value": 32, "unit": "µg/mL"},
      {"measurement": "MIC", "setting": "[1]; [5]", "value": 16, "unit": "µg/mL"},
      {"measurement": "MIC", "setting": "[2]; [6]", "value": 64, "unit": "µg/mL"},
      {"measurement": "MIC", "setting": "[2]; strain 1573, 24 hours", "value": 16, "unit": "µg/mL"},
      {"measurement": "MIC", "setting": "[3]", "value": 64, "unit": "µg/mL"},
      {"measurement": "MIC", "setting": "[4]", "value": 128, "unit": "µg/mL"}
    ]},
    {"smiles": "CC(C)c1c(Cl)c(Cl)c(-c2ccc(F)cc2)n1CC[C@@H](O)C[C@@H](O)CC(=O)O", "note": "(relative stereo) [Compound 3, 3,4-Dichloro-2-(4-fluorophenyl)-β,δ-hydroxy-5-(1-methylethyl)-1H-pyrrole-1-heptanoic acid, monosodium salt]", "values": [
      {"measurement": "MIC", "setting": "[1]; 24 h, strain 1570", "value": 64, "unit": "µg/mL"},
      {"measurement": "MIC", "setting": "[1]; 24 h, strain 1571", "value": 64, "unit": "µg/mL"},
      {"measurement": "MIC", "setting": "[1]; 24 h, strain 1574", "value": 64, "unit": "µg/mL"},
      {"measurement": "MIC", "setting": "[1]; 24 h, strain 1575", "value": 64, "unit": "µg/mL"},
      {"measurement": "MIC", "setting": "[1]; 24 h, strain 1576", "value": 64, "unit": "µg/mL"},
      {"measurement": "MIC", "setting": "[1]; 24 h, strain 1577", "value": 32, "unit": "µg/mL"},
      {"measurement": "MIC", "setting": "[1]; 24 h, strain 1578", "value": 64, "unit": "µg/mL"},
      {"measurement": "MIC", "setting": "[1]; 24 h, strain 1579", "value": 64, "unit": "µg/mL"},
      {"measurement": "MIC", "setting": "[1]; 24 h, strain B4b", "value": 32, "unit": "µg/mL"},
      {"measurement": "MIC", "setting": "[1]; 24 h, strain M752", "value": 64, "unit": "µg/mL"},
      {"measurement": "MIC", "setting": "[1]; [5]", "value": 32, "unit": "µg/mL"},
      {"measurement": "MIC", "setting": "[2]; [6]", "value": 128, "unit": "µg/mL"},
      {"measurement": "MIC", "setting": "[2]; strain 1573, 24 hours", "value": 32, "unit": "µg/mL"},
      {"measurement": "MIC", "setting": "[3]", "value": 128, "unit": "µg/mL"},
      {"measurement": "MIC", "setting": "[4]", "value": 128, "unit": "µg/mL"}
    ]},
    {"smiles": "C[C@@H]1[C@H](O)[C@@H](C)/C=C/C=C/C=C/C=C/C=C/C=C/C=C/[C@H](O[C@@H]2O[C@H](C)[C@@H](O)[C@H](N)[C@@H]2O)C[C@@H]2O[C@](O)(C[C@@H](O)C[C@@H](O)[C@H](O)CC[C@@H](O)C[C@@H](O)CC(=O)O[C@H]1C)C[C@H](O)[C@H]2C(=O)O", "note": "[AMP-B, Amphotericin-B, reference compound]", "values": [
      {"measurement": "MIC", "setting": "[1]; 24 h, strain 1570", "value": 8, "unit": "µg/mL"},
      {"measurement": "MIC", "setting": "[1]; 24 h, strain 1571", "value": 2, "unit": "µg/mL"},
      {"measurement": "MIC", "setting": "[1]; 24 h, strain 1574", "value": 4, "unit": "µg/mL"},
      {"measurement": "MIC", "setting": "[1]; 24 h, strain 1575", "value": 8, "unit": "µg/mL"},
      {"measurement": "MIC", "setting": "[1]; 24 h, strain 1576", "value": 4, "unit": "µg/mL"},
      {"measurement": "MIC", "setting": "[1]; 24 h, strain 1577", "value": 8, "unit": "µg/mL"},
      {"measurement": "MIC", "setting": "[1]; 24 h, strain 1578", "value": 8, "unit": "µg/mL"},
      {"measurement": "MIC", "setting": "[1]; 24 h, strain 1579", "value": 4, "unit": "µg/mL"},
      {"measurement": "MIC", "setting": "[1]; 24 h, strain B4b", "value": 4, "unit": "µg/mL"},
      {"measurement": "MIC", "setting": "[1]; 24 h, strain M752", "value": 8, "unit": "µg/mL"},
      {"measurement": "MIC", "setting": "[1]; [5]", "value": 4, "unit": "µg/mL"},
      {"measurement": "MIC", "setting": "[2]; [6]", "value": 8, "unit": "µg/mL"},
      {"measurement": "MIC", "setting": "[2]; strain 1573, 24 hours", "value": 4, "unit": "µg/mL"},
      {"measurement": "MIC", "setting": "[3]", "value": 4, "unit": "µg/mL"},
      {"measurement": "MIC", "setting": "[4]", "value": 8, "unit": "µg/mL"}
    ]},
    {"smiles": "CC(=O)N1CCN(c2ccc(OCC3COC(Cn4ccnc4)(c4ccc(Cl)cc4Cl)O3)cc2)CC1", "note": "(stereo not drawn) [Keto, Ketoconazole, reference compound]", "values": [
      {"measurement": "MIC", "setting": "[1]; 24 h, strain 1570", "value": 0.25, "unit": "µg/mL"},
      {"measurement": "MIC", "setting": "[1]; 24 h, strain 1571", "value": 0.125, "unit": "µg/mL"},
      {"measurement": "MIC", "setting": "[1]; 24 h, strain 1574", "value": 0.25, "unit": "µg/mL"},
      {"measurement": "MIC", "setting": "[1]; 24 h, strain 1575", "value": 0.5, "unit": "µg/mL"},
      {"measurement": "MIC", "setting": "[1]; 24 h, strain 1576", "value": "> 0.5", "unit": "µg/mL"},
      {"measurement": "MIC", "setting": "[1]; 24 h, strain 1577", "value": 0.125, "unit": "µg/mL"},
      {"measurement": "MIC", "setting": "[1]; 24 h, strain 1578", "value": 0.25, "unit": "µg/mL"},
      {"measurement": "MIC", "setting": "[1]; 24 h, strain 1579", "value": 0.5, "unit": "µg/mL"},
      {"measurement": "MIC", "setting": "[1]; 24 h, strain B4b", "value": 0.25, "unit": "µg/mL"},
      {"measurement": "MIC", "setting": "[1]; 24 h, strain M752", "value": 0.25, "unit": "µg/mL"},
      {"measurement": "MIC", "setting": "[1]; [5]", "value": "> 0.5", "unit": "µg/mL"},
      {"measurement": "MIC", "setting": "[2]; [6]", "value": 0.5, "unit": "µg/mL"},
      {"measurement": "MIC", "setting": "[2]; strain 1573, 24 hours", "value": "> 0.5", "unit": "µg/mL"},
      {"measurement": "MIC", "setting": "[3]", "value": "> 0.5", "unit": "µg/mL"},
      {"measurement": "MIC", "setting": "[4]", "value": "> 0.5", "unit": "µg/mL"}
    ]}
  ]
}
